Measurements from patent publication US9552457B2, “Reprogramming effector protein interactions to correct epigenetic defects in cancer” (BRITISH COLUMBIA CANCER AGENCY BRANCH, priority 2012, dated 2017).
Where two headings read alike, the source gives them in different places.

Tests used:
[1] = test system: SU-DHL-9 (MLL2 homozygous indel mutant) cell line; assay: alamarBlue cell proliferation assay, SU-DHL-9 cell line; assay type: cell-based, human; conditions: for activity at 10 µM: Homo sapiens, 48 hours, normalized to carrier-treated control, SU-DHL-9, read-out: % Cell Proliferation; for activity against the MLL2 double LoF mutant cell line: SU-DHL-9, in words; for activity as worded in SAR analysis (selective toxicity against SU-DHL-9): in words, restates Tables 3 and 4
Protocol: Cell line DOHH2 was obtained from DSMZ. Pfeiffer was obtained from ATCC. SU-DHL-9 was obtained from Martin Dyer (University of Leicester, UK).
Compounds were initially solubilized in DMSO at a concentration of 10 mM. […] Ninety microliters of cells maintained at a concentration of 4×10^5 cells/mL were dispensed into wells of a MICROTEST™ 96-well Assay Plate, Optilux™ (BD). Ten microliters of the 100 μM compound solution were then added to the cells resulting in a final compound concentration of 10 μM. Each compound was tested in triplicate. […] Compounds were incubated with the cells in a 37° C. incubator with 5% CO2, humidified atmosphere for 48 hours before being subjected to the alamarBlue® cell proliferation assay (Life Technologies). Raw fluorescent units were corrected for background noise and normalized to the carrier-treated control.

[2] = test system: DoHH-2, OCI-LY3, WSU-DLCL2 (all wild-type for MLL2); assay: alamarBlue cell proliferation assay, MLL2 wild-type cell lines; assay type: cell-based; conditions: for activity against wild-type cells: in words
Protocol: Diffuse large B-cell lymphoma cell lines were maintained in RPMI medium 1640 (Life Technologies) supplemented with 10% (v/v) fetal bovine serum (Life Technologies) and 1% penicillin/streptomycin (Life Technologies) in a 37° C. incubator with 5% CO2, humidified atmosphere. Cell line DOHH2 was obtained from DSMZ. Pfeiffer was obtained from ATCC. SU-DHL-9 was obtained from Martin Dyer (University of Leicester, UK).
Compounds were initially solubilized in DMSO at a concentration of 10 mM. This compound solution was further diluted 1:100 in RPMI medium 1640 to a final concentration of 100 μM. Ninety microliters of cells maintained at a concentration of 4×10^5 cells/mL were dispensed into wells of a MICROTEST™ 96-well Assay Plate, Optilux™ (BD). Ten microliters of the 100 μM compound solution were then added to the cells resulting in a final compound concentration of 10 μM. Each compound was tested in triplicate. Ten microliters of a 1:100 DMSO to RPMI medium 1640 solution were also added to 90 μL of cells as a carrier control. Furthermore, each plate included wells containing only RPMI medium 1640 to serve as a background noise control as well as cells that were completely untreated. Compounds were incubated with the cells in a 37° C. incubator with 5% CO2, humidified atmosphere for 48 hours before being subjected to the alamarBlue® cell proliferation assay (Life Technologies). Raw fluorescent units were corrected for background noise and normalized to the carrier-treated control.
The activity of Compound 3 in vitro was investigated further using the cell lines DoHH-2, OCI-LY3, WSU-DLCL2 (all wild-type for MLL2) and SU-DHL9. In addition, the dose response for Compound 2 was investigated in cell lines mutant for MLL2 or both MLL2 and EZH2. The dose response for Compound 3 was investigated in a MLL2 mutant cell line. Methods were as described for Example 3. Cell-line WSU-DLCL2 was obtained from DSMZ and OCI-Ly lines 3 was obtained from Louis Staudt (US National Institutes of Health).

[3] = test system: SU-DHL-9 (MLL2 mutated) tumours; assay: SU-DHL-9 mouse xenograft model; assay type: in vivo; conditions: eight days, day nine
Protocol: NOD/SCID/γ^null (NSG) mice were bred at the local BCCRC animal facility. To establish primary tumors, male NSG mice were inoculated with 1×10^7 cells of the human diffuse histiocytic lymphoma cell line SU-DHL-9 in 50 μl PBS in the flank area. After development of s.c. tumors, mice were sacrificed and small fragments of the tumors (˜20 mg) were transplanted s.c. into the right flank of anesthetized six-ten weeks old male NSG recipient mice using 13 G trocar needles. Treatment was initiated once the tumors became palpable. Tumourlength and width was determined by caliper and tumourvolume was calculated by the modified ellipsoidal formula as […].
Compounds were diluted in a mixture of 50% DMSO and 50% polyethylene glycol 200. Eight tumor-bearing mice per group were administered by intraperitoneal injections daily over a period of eight days with either compounds at doses of 1 mg/kg or 4 mg/kg (Compound 3; NSC 127763), 4 mg or 12 mg/kg (Compound 2; NSC 304107) or the vehicle for control. Body weight was recorded every two days, tumoursize every four days and mice were monitored for any other additional adverse effects. Experimental animals were sacrificed at day nine, tumourvolumes were determined and the significance of differences was determined by Student's t-test after normalizing to the initial tumourvolume.

[4] = target: T1, GST-BPTF dual PHD finger-bromodomain (Homo sapiens, UniProt Q12830); assay: BPTF pull down assay with H3K4 methylated peptides; assay type: binding; conditions: 68 μM drug
T1 construct: The dual PHD finger-bromodomain (residues 2583-2751) from the human BPTF (gi:31322942); made in house; host or cells: E. coli BL21-AI
Protocol: Certain embodiments of the invention relate to the use of a “pull down” assay to characterize the binding of candidate compounds to the target mark. A general schema for such an assay as it applies to BPTF is shown in FIG. 4 and described in Example 5. Briefly, the GST-labeled PHD finger-bromodomain of BPTF was incubated with the candidate compound and H3K4me0, me1, me2 or me3 peptides that were coupled to streptavidin-labeled dynabeads through a biotin molecule on the peptide. After washing with an appropriate buffer, bound protein was eluted from the beads and assessed by SDS-PAGE and optionally Western blot. One skilled in the art will appreciate that this assay can be readily adapted to other readers/erasers and histone marks.
The full-length human BPTF construct was obtained from C. David Allis of the Laboratory of Chromatin Biology, Rockefeller University (Li et al., 2006, ibid). The dual PHD finger-bromodomain (residues 2583-2751) from the human BPTF (gi:31322942) was cloned into a pDEST15 vector using Gateway® cloning technology allowing for an N-terminal GST tag (Life Technologies). Over-expression of the GST-BPTF dual PHD finger-bromodomain was induced in BL21-AI™ chemically competent E. coli cells using LB medium supplemented with 1 mM IPTG and 0.2% L-arabinose for 2 hours in a 37° C. shaking incubator. GST-BPTF dual PHD finger-bromodomain was purified using Glutathione Sepharose 4B media (GE Healthcare Life Sciences) and dialyzed against PBS (Life Technologies) overnight.
The peptide pull-down experiment was performed essentially as previously described (Ruthenburg et al., 2011, Cell, 145(5):692-706.). Fifty microliters of M-280 streptavidin-coupled Dynabeads® (Life Technologies) were dispensed into 1.5 mL microtubes and washed 3×50 μL in PBS. The beads were then incubated with C-terminally biotinylated H3K4me0, me1, me2 or me3 peptides 21 amino acids long (Anaspec) rotating for 1 hour at 4° C. under saturating conditions. The beads were washed 3×100 μL in HBS-TD (10 mM Na-HEPES, 150 mM NaCl, 0.005% Tween-20, 2 mM DTT) and incubated with 6.8 μM of GST-BPTF along with either 68 μM of drug in a 1:100 DMSO to PBS solution or carrier alone rotating for 3 hours at 4° C. The beads were then washed 10×200 μL in HBS-TD. The protein was eluted using 2×LDS sample buffer (Life Technologies) and 1× reducing agent (Life Technologies) at 85° C. for 10 minutes. Samples were subjected to SDS-PAGE and bands were visualized using either SimplyBlue stain (Life Technologies) or GST antibody (Santa Cruz). Quantification of bands was made using ImageJ software.

[5] = test system: WSU-DLCL2 Cells (EZH2 mutation Y641F); assay: Cell viability of lymphoma cell lines, WSU-DLCL2; assay type: cell-based, human; conditions: WSU-DLCL2, in words
Protocol: (§1) Compound 50 was tested for its effect on the viability of three lymphoma cell lines in vitro using standard methods. The cell lines tested were: DoHH-2 (wildtype for EZH2, MEF2B and MLL2); WSU-DLCL2 (EZH2 mutation Y641F (wildtype for MEF2B and MLL2)) and DB (EZH2 mutation Y641N, the MEF2B mutation D83V and three mutations in MLL2 (two of which lead to a truncated protein after residue Q2736 and the third allele has a 1 base pair deletion at residue P480)).
(§2) Compound 51 (NSC2540) was tested for its effect on the viability of four lymphoma cell lines in vitro using standard methods. The cell lines tested were DoHH-2, WSU-DLCL2, DB and SU-DHL-9 (EZH2 wildtype, MEF2B wildtype, MLL2 indel).

[6] = test system: WSU-DLCL2 human diffuse large cell lymphoma tumours; assay: WSU-DLCL2 mouse xenograft model; assay type: in vivo; conditions: 1 mg/kg or 4 mg/kg intraperitoneal daily for ten days, evaluation at day 12; p=0.0047 control vs 4 mg/kg
Protocol: WSU-DLCL2 tumourfragments were transplanted subcutaneously into the flank of male NSG mice. Mice were 9.0-9.3 weeks at transplantation and treatment was started when the mice were between 12.9 and 13.1 weeks. 8 mice were used per group and treatment was daily for ten days with evaluation at day 12. Tumoursize determined by caliper every four days, tumourvolume calculated by length×width^2/2.
The groups of mice were treated with vehicle (control), 1 mg/kg Compound 50 or 4 mg/kg Compound 50 by intraperitoneal injection. Vehicle was 50% DMSO/50% PEG-400.
WSU-DLCL2 tumourfragments were transplanted subcutaneously into the flank of male NSG mice. Mice were 5.3-9.4 weeks at transplantation and treatment was started when the mice were between 8.6 and 12.7 weeks. 8 mice were used in the control group and 6 mice were used in the Compound 51 treated group. Treatment was daily for ten days with evaluation at day 12. Tumoursize determined by caliper every four days, tumourvolume calculated by length×width^2/2.
The groups of mice were treated with vehicle (control) or Compound 51 by intraperitoneal injection at 4 mg/kg for the first 5 days and 2 mg/kg for the subsequent 5 days. Vehicle was 50% DMSO/50% PEG-400.

[7] = test system: DB (EZH2 mutation Y641N, MEF2B mutation D83V, three mutations in MLL2); assay: Cell viability of lymphoma cell lines, DB; assay type: cell-based; conditions: in words
Protocol: as §1

[8] = test system: DoHH2 Cells (wildtype for EZH2, MEF2B and MLL2); assay: Cell viability of lymphoma cell lines, DoHH-2; assay type: cell-based; conditions: DoHH-2, in words
Protocol: as §1, §2

[9] = 6.8 μM GST-BPTF, GST antibody staining

| Compound | activity at 10 µM ([1]; Table 3, scaffold A) [%] | activity against the MLL2 double LoF mutant cell line [1] | activity as worded in SAR analysis (selective toxicity against SU-DHL-9) [1] | activity against wild-type cells [2] | median tumour growth ([3]; 12 mg/kg intraperitoneal daily, untreated control 1755%) [%] | binding of H3K4me2 with BPTF [4, 9] | binding of H3K4me3 with BPTF [4, 9] | activity at 10 µM ([1]; Table 4, scaffold B) [%] | effect on cells where MLL2 was wild-type ([2]; DoHH-2, OCI-LY3, WSU-DLCL2) | median tumour growth ([3]; 4 mg/kg intraperitoneal daily, untreated control 563%) [%] | binding of H3K4me1 with BPTF [4, 9] | Densitometry value, H3K4me3 + compound ([4]; without compound 2545) | Densitometry value, H3K4me1 + compound ([4]; without compound 9350) | effect on viability [5] | effect on tumour volume [6] | effect on viability [7] | effect on viability [8] |
| --- | --- | --- | --- | --- | --- | --- | --- | --- | --- | --- | --- | --- | --- | --- | --- | --- | --- |
| C=C(CN(C)C)C(=O)c1cc(C)ccc1C [Compound 1, 2-dimethylaminomethyl-1-(2,5-dimethyl-phenyl)-propenone] | < 10 | active | active | inactive |  |  |  |  |  |  |  |  |  |  |  |  |  |
| CN(C)CCC(=O)c1ccc(Cl)cc1Cl [Compound 2, 1-(2,4-dichloro-phenyl)-3-dimethylamino-propan-1one] | < 10 | active | active | inactive | 1305 | able to stabilize the binding | diminished binding |  |  |  |  |  |  |  |  |  |  |
| O=C1c2ccccc2C(=O)c2c(NC(=O)C(Cl)CCl)cccc21 (stereo not shown) [Compound 3, 2,3-didhloro-N-(9,10-dioxo-9,10-dihydro-anthracen-1-yl)-propionamide] |  | active | active | inactive |  |  | diminished binding | < 10 | no obvious effect | 362 | able to stabilize the binding | 4227 | 13335 |  |  |  |  |
| O=C(CBr)c1cc(-c2ccccc2)nc2c(Cl)cc(Cl)cc12 [Compound 50] |  |  |  |  |  |  |  |  |  |  |  |  |  | highest activity | able to reduce tumour volume | reduced the viability | reduced the viability |
